Here are results for 18 molecules from US7250413B2, “C-25 carbamate rifamycin derivatives with activity against drug-resistant microbes” (Cumbre Pharmaceuticals Inc., priority 2004, dated 2007).

≈ marks a conversion by molar mass, not a printed value.

What all share (assay): MIC, microbroth dilution
Format in all cases: cell-based

In assay [1] the test system is Enterococcus faecalis ATCC29212. Conditions: rifS, BHI Broth, 37° C., read-out: MIC. As to the method:
(§1) Representative compounds were assayed for antimicrobial activity as follows: Minimum Inhibitory Concentrations (“MICs”) were determined by the microbroth dilution method as per NCCLS guidelines (National Committee for Clinical Laboratory Standards, 2000), except that all growth incubations were conducted at 37° C. Bacterial cultures were tested in the following bacteriological media: S. aureus, S. epidermidis, and E. coli in Cation-Adjusted Mueller-Hinton Broth, S. pneumoniae in THY Broth supplemented with 1 mg/mL catalase under 5% CO2 atmosphere, S. pyogenes in THY Broth, E. faecalis in BHI Broth, H. influenzae in BHI Broth supplemented with 0.75 μL of 1 mg/mL NAD and 150 μL of 1 mg/ml hematin per 5 mL, and M smegmatis in Middlebrook Broth plus ADC Enrichment.

The test system of assay [2] is Staphylococcus aureus ATCC29213. As to conditions: rifS, Cation-Adjusted Mueller-Hinton Broth, 37° C., read-out: MIC. The procedure: as §1
The test system of assay [3] is Mycobacterium smegmatis ATCC700084. Conditions: Mycolicibacterium smegmatis, ATCC700084; rifS; Middlebrook Broth plus ADC Enrichment, 37° C.; read-out: MIC. As to the method:
as §1

What is called MIC is the smallest concentration in the dilution series that meets the test's criterion for growth inhibition. Consider `COc1c(N2CCC(NC3CCN(C(=O)O[C@H]4[C@H](C)[C@H](O)[C@H](C)[C@@H](O)[C@@H](C)/C=C/C=C(/C)C(=O)NC5=C(N6CCOCC6)C(=O)c6c(c(O)c(C)c7c6C(=O)[C@@](C)(O/C=C/[C@H](OC)[C@H]4C)O7)C5=O)CC3)CC2)c(F)cc2c(=O)c(C(=O)O)cn(C3CC3)c12` [Example 58], for which the MIC is 0.25 to 62 µg/mL (≈ 0.204 to 50.7 µM) in assay [1], 0.002 to 1.95 µg/mL (≈ 0.00163 to 1.59 µM) in assay [2] and 0.063 to 31 µg/mL in assay [3].
For `CO[C@H]1/C=C/O[C@@]2(C)Oc3c(C)c(O)c4c(c3C2=O)C(=O)C(N2CCOCC2)=C(NC(=O)/C(C)=C\C=C\[C@H](C)[C@H](O)[C@@H](C)[C@@H](O)[C@@H](C)[C@H](OC(=O)NCc2ccc([N+](=O)[O-])cc2)[C@@H]1C)C4=O` [Example 40, 25-O-Desacetyl-(carbonyl-4-nitro-benzylamine) 3-morpholino rifamycin S] the same measures were 0.25 to 62 µg/mL (≈ 0.273 to 67.6 µM), 0.002 to 1.95 µg/mL (≈ 0.00218 to 2.13 µM) and 0.063 to 31 µg/mL.
For `CO[C@H]1/C=C/O[C@@]2(C)Oc3c(C)c(O)c4c(c3C2=O)C(=O)C(N2CCOCC2)=C(NC(=O)/C(C)=C\C=C\[C@H](C)[C@H](O)[C@@H](C)[C@@H](O)[C@@H](C)[C@H](OC(=O)NCCC2CCCN2C)[C@@H]1C)C4=O` (stereo partly drawn) [Example 31, 25-O-Desacetyl-(carbonyl-2-(1-methyl-pyrrolidin-2-yl)-ethylamine) 3-morpholino rifamycin S] the same measures were 0.25 to 62 µg/mL (≈ 0.28 to 69.4 µM), 0.002 to 1.95 µg/mL (≈ 0.00224 to 2.18 µM) and 0.063 to 31 µg/mL.
As for `CO[C@H]1/C=C/O[C@@]2(C)Oc3c(C)c(O)c4c(c3C2=O)C(=O)C(N2CCOCC2)=C(NC(=O)/C(C)=C\C=C\[C@H](C)[C@H](O)[C@@H](C)[C@@H](O)[C@@H](C)[C@H](OC(=O)NCCN2CCCC2)[C@@H]1C)C4=O` [Example 32, 25-O-Desacetyl-(carbonyl-2-Pyrrolidin-1-yl-ethylamine) 3-morpholino rifamycin S], the MIC in assay [1] lay in the range of 0.25 to 62 µg/mL (≈ 0.284 to 70.5 µM); in assay [2] it was 0.002 to 1.95 µg/mL (≈ 0.00228 to 2.22 µM); in assay [3], 0.063 to 31 µg/mL.
With `COc1c(N2CCN(C3CCN(C(=O)O[C@H]4[C@H](C)[C@H](O)[C@H](C)[C@@H](O)[C@@H](C)/C=C/C=C(/C)C(=O)NC5=C(N6CCOCC6)C(=O)c6c(c(O)c(C)c7c6C(=O)[C@@](C)(O/C=C/[C@H](OC)[C@H]4C)O7)C5=O)C3)CC2)c(F)cc2c(=O)c(C(=O)O)cn(C3CC3)c12` (stereo partly drawn) [Example 62], the MIC is 0.25 to 62 µg/mL (≈ 0.209 to 51.9 µM) in assay [1], 0.002 to 1.95 µg/mL (≈ 0.00167 to 1.63 µM) in assay [2] and 0.063 to 31 µg/mL in assay [3].
The matching figures for `CO[C@H]1/C=C/O[C@@]2(C)Oc3c(C)c(O)c4c(c3C2=O)C(=O)C(N2CCOCC2)=C(NC(=O)/C(C)=C\C=C\[C@H](C)[C@H](O)[C@@H](C)[C@@H](O)[C@@H](C)[C@H](OC(=O)NC2CCN(c3c(F)cc5c(=O)c(C(=O)O)cn(C6CC6)c5c3Cl)C2)[C@@H]1C)C4=O` (stereo partly drawn) [Example 67, 25-O-Desacetyl-(carbonyl-N-7-(3-amino-pyrrolidin-1-yl)-8-chloro-1-cyclopropyl-6-fluoro-4-oxo-1,4-dihydro-quinoline-3-carboxylic acid) 3-morpholino rifamycin S]: 0.25 to 62 µg/mL (≈ 0.221 to 54.8 µM), 0.002 to 1.95 µg/mL (≈ 0.00177 to 1.72 µM) and 0.063 to 31 µg/mL.
For the molecule `CO[C@H]1/C=C/O[C@@]2(C)Oc3c(C)c(O)c4c(c3C2=O)C(=O)C(N2CCOCC2)=C(NC(=O)/C(C)=C\C=C\[C@H](C)[C@H](O)[C@@H](C)[C@@H](O)[C@@H](C)[C@H](OC(=O)N(CCN(C)C)Cc2ccccc2)[C@@H]1C)C4=O` [Example 37, 25-O-Desacetyl-(carbonyl-N′-benzyl-N,N-dimethyl-ethane-1,2-diamino) 3-morpholino rifamycin S], the MIC in assay [1] lay in the range of 0.25 to 62 µg/mL (≈ 0.265 to 65.7 µM); in assay [2], 0.002 to 1.95 µg/mL (≈ 0.00212 to 2.07 µM); in assay [3], 0.063 to 31 µg/mL.
The matching figures for `CO[C@H]1/C=C/O[C@@]2(C)Oc3c(C)c(O)c4c(c3C2=O)C(=O)C(N2CCOCC2)=C(NC(=O)/C(C)=C\C=C\[C@H](C)[C@@H]2OC(C)(C)O[C@@H]([C@@H](C)[C@H](OC(=O)n3ccnc3)[C@@H]1C)[C@@H]2C)C4=O` [Example 4]: 0.25 to 62 µg/mL (≈ 0.286 to 71 µM), 0.002 to 1.95 µg/mL (≈ 0.00229 to 2.23 µM) and 0.063 to 31 µg/mL.
For `COc1ccccc1-c1cc(CNC(=O)O[C@H]2[C@H](C)[C@H](O)[C@H](C)[C@@H](O)[C@@H](C)/C=C/C=C(/C)C(=O)NC3=C(N4CCOCC4)C(=O)c4c(c(O)c(C)c5c4C(=O)[C@@](C)(O/C=C/[C@H](OC)[C@H]2C)O5)C3=O)on1` [Example 46, 25-O-Desacetyl-(carbonyl-C-[3-(2-methoxy-phenyl)-isoxazol-5-yl]-methylamino) 3-morpholino rifamycin S] the same measures were 0.25 to 62 µg/mL (≈ 0.258 to 64 µM), 0.002 to 1.95 µg/mL (≈ 0.00206 to 2.01 µM) and 0.063 to 31 µg/mL.
As for `CO[C@H]1/C=C/O[C@@]2(C)Oc3c(C)c(O)c4c(c3C2=O)C(=O)C(N2CCOCC2)=C(NC(=O)/C(C)=C\C=C\[C@H](C)[C@@H]2OC(C)(C)O[C@@H]([C@@H](C)[C@H](OC(=O)n3cc[n+](Cc5ccccc5)c3)[C@@H]1C)[C@@H]2C)C4=O` [Example 5, 1-Benzyl-3-(25-O-desacetyl-(carbonyl-cyclic-21,23-(1-methylethylideneacetal) 3-morpholinorifamycin S))-3H-imidazol-1-ium], the MIC in assay [1] fell in the range of 0.25 to 62 µg/mL; in assay [2] it was 0.002 to 1.95 µg/mL; in assay [3], 0.063 to 31 µg/mL.
In the case of `COc1c(N2CCN(C(=O)O[C@H]3[C@H](C)[C@H](O)[C@H](C)[C@@H](O)[C@@H](C)/C=C/C=C(/C)C(=O)NC4=C(N5CCOCC5)C(=O)c5c(c(O)c(C)c6c5C(=O)[C@@](C)(O/C=C/[C@H](OC)[C@H]3C)O6)C4=O)C(C)C2)c(F)cc2c(=O)c(C(=O)O)cn(C3CC3)c12` (stereo partly drawn) [Example 28, 25-O-Desacetyl-(carbonyl-1-cyclopropyl-6-fluoro-8-methoxy-7-(3-methyl-piperazin-1-yl)-4-oxo-1,4-dihydro-quinoline-3-carboxylic acid) 3-morpholino rifamycin S], the MIC in assay [1] fell in the range of 0.25 to 62 µg/mL (≈ 0.219 to 54.4 µM); in assay [2] it was 0.002 to 1.95 µg/mL (≈ 0.00175 to 1.71 µM); in assay [3], 0.063 to 31 µg/mL.
The matching figures for `CO[C@H]1/C=C/O[C@@]2(C)Oc3c(C)c(O)c4c(c3C2=O)C(=O)C(N2CCOCC2)=C(NC(=O)/C(C)=C\C=C\[C@H](C)[C@H](O)[C@@H](C)[C@@H](O)[C@@H](C)[C@H](OC(=O)NCc2cc(-c3ccccn3)no2)[C@@H]1C)C4=O` [Example 47, 25-O-Desacetyl-(carbonyl-C-(3-Pyridin-2-yl-isoxazol-5-yl)-methylamino) 3-morpholino rifamycin S]: 0.25 to 62 µg/mL (≈ 0.266 to 66 µM), 0.002 to 1.95 µg/mL (≈ 0.00213 to 2.07 µM) and 0.063 to 31 µg/mL.
For `CO[C@H]1/C=C/O[C@@]2(C)Oc3c(C)c(O)c4c(c3C2=O)C(=O)C(N2CCOCC2)=C(NC(=O)/C(C)=C\C=C\[C@H](C)[C@H](O)[C@@H](C)[C@@H](O)[C@@H](C)[C@H](OC(=O)NCc2cccc(Cl)c2)[C@@H]1C)C4=O` [Example 39, 25-O-Desacetyl-(carbonyl-3-chloro-benzylamine) 3-morpholino rifamycin S] the same measures were 0.25 to 62 µg/mL (≈ 0.276 to 68.4 µM), 0.002 to 1.95 µg/mL (≈ 0.00221 to 2.15 µM) and 0.063 to 31 µg/mL.
With `CO[C@H]1/C=C/O[C@@]2(C)Oc3c(C)c(O)c4c(c3C2=O)C(=O)C(N2CCOCC2)=C(NC(=O)/C(C)=C\C=C\[C@H](C)[C@H](O)[C@@H](C)[C@@H](O)[C@@H](C)[C@H](OC(=O)NCc2cc(C(C)=O)no2)[C@@H]1C)C4=O` [Example 48], the MIC in assay [1] fell in the range of 0.25 to 62 µg/mL (≈ 0.276 to 68.5 µM); in assay [2] it was 0.002 to 1.95 µg/mL (≈ 0.00221 to 2.15 µM); in assay [3], 0.063 to 31 µg/mL.
For `CO[C@H]1/C=C/O[C@@]2(C)Oc3c(C)c(O)c4c(c3C2=O)C(=O)C(N2CCOCC2)=C(NC(=O)/C(C)=C\C=C\[C@H](C)[C@H](O)[C@@H](C)[C@@H](O)[C@@H](C)[C@H](OC(=O)N2CCN(c3ccc(F)cc3)CC2)[C@@H]1C)C4=O` [Example 12, 25-O-Desacetyl-(1-carbonyl-1-(4-fluorophenyl)-piperazine) 3-morpholino rifamycin S] the same measures were 0.25 to 62 µg/mL (≈ 0.265 to 65.6 µM), 0.002 to 1.95 µg/mL (≈ 0.00212 to 2.06 µM) and 0.063 to 31 µg/mL.
Take `CO[C@H]1/C=C/O[C@@]2(C)Oc3c(C)c(O)c4c(c3C2=O)C(=O)C(N2CCOCC2)=C(NC(=O)/C(C)=C\C=C\[C@H](C)[C@H](O)[C@@H](C)[C@@H](O)[C@@H](C)[C@H](OC(=O)NCCc2cccs2)[C@@H]1C)C4=O` [Example 19, 25-O-Desacetyl-(1-carbonyl-2-thiophen-2-yl-ethylamine) 3-morpholino rifamycin S]: the results for the MIC in assay [1], in assay [2] and in assay [3] were 0.25 to 62 µg/mL (≈ 0.28 to 69.5 µM), 0.002 to 1.95 µg/mL (≈ 0.00224 to 2.19 µM) and 0.063 to 31 µg/mL, respectively.
The matching figures for `CO[C@H]1/C=C/O[C@@]2(C)Oc3c(C)c(O)c4c(c3C2=O)C(=O)C(N2CCOCC2)=C(NC(=O)/C(C)=C\C=C\[C@H](C)[C@H](O)[C@@H](C)[C@@H](O)[C@@H](C)[C@H](OC(=O)NCC(=O)NC2CCN(c3c(F)cc5c(=O)c(C(=O)O)cn(C6CC6)c5c3Cl)C2)[C@@H]1C)C4=O` (stereo partly drawn) [Example 63]: 0.25 to 62 µg/mL (≈ 0.21 to 52.2 µM), 0.002 to 1.95 µg/mL (≈ 0.00168 to 1.64 µM) and 0.063 to 31 µg/mL.
For `CO[C@H]1/C=C/O[C@@]2(C)Oc3c(C)c(O)c4c(c3C2=O)C(=O)C(N2CCOCC2)=C(NC(=O)/C(C)=C\C=C\[C@H](C)[C@H](O)[C@@H](C)[C@@H](O)[C@@H](C)[C@H](OC(=O)N2CCN(c3c(F)cc5c(=O)c(C(=O)O)cn(C6CC6)c5c3Cl)CC2)[C@@H]1C)C4=O` [Example 17, 25-O-Desacetyl-(8-chloro-1-cyclopropyl-7-[4-(1-carbonyl)-piperazin-1-yl]-6-fluoro-4-oxo-1,4-dihydro-quinoline-3-carboxylic acid) 3-morpholino rifamycin S] the same measures were 0.25 to 62 µg/mL (≈ 0.221 to 54.8 µM), 0.002 to 1.95 µg/mL (≈ 0.00177 to 1.72 µM) and 0.063 to 31 µg/mL.
